Series [1] relates to Bak−/− and DKO A549 cells. Kind of series: apoptotic cell death in Bak knockout cells. The format is cell-based, human. From the text:
Bak is a pro-apoptotic protein required for programmed cell death and apoptosis induction in cancer cells. […] Experiments indicate that BKA-073 directly binds to Bak protein and induces Bak oligomerization in mitochondria leading to activation of a proapoptotic function. Experiments indicate that BKA-073-induced Bak oligomerization promotes mitochondrial priming and Cyt c release, which are early changes in net pro-apoptotic signaling at the mitochondria. BKA-073-induced mitochondrial priming and Cyt c release leads to apoptotic cell death of lung cancer cells.
Several Bax/Bak-independent mechanisms of apoptotic cell death have been described. […] It is contemplated that, in addition to the major Bak-dependent apoptosis mechanism, BKA-073 induces a small proportion of apoptotic cell death (about 20%) through Bax/Bak-independent mechanism(s).

The test system of series [2] is KRAS G12D LKB1fl/fl (KL) mice. In words: mutant KRAS-driven lung cancer GEMM. The format is in vivo. The settings on record: 15 mg/kg/d i.p., control 4 of 6, p<0.01. The procedure:
After administration of adenovirus Cre recombinase in KRAS G12D LKB1fl/fl (KL) mice for 6 weeks, KL mice were treated with KRA-073 (15 mg/kg/d) i.p. for 48 days (n=6 mice/group). Survival of mice is shown for up to 48 days before euthanization in the control group versus the BKA-073 treatment group.
To assess the potency of BKA-073 in KRAS mutant driven lung cancer, lox-stop-lox (LSL)-KRAS G12D LKB1fl/fl (i.e. KL) mice were generated and bred. These mice contain a KRAS G12D LSL knock-in allele and a floxed allele of LKB1 (LKB1fl/fl). Primary lung adenocarcinoma was detectable as early as 6 weeks after intranasal administration of 5×10^6 pfu adenovirus expressing Cre recombinase (AdeCre) in KRAS G12D LKB1fl/fl (KL) mice.
To further assess the potential of BKA-073 as therapy for mutant KRAS-driven lung cancer, BKA-073 (15 mg/kg/d) or vehicle was administered to KL mice i.p. starting at 6 weeks post AdeCre delivery. […] To quantify tumor burden and tumor multiplicity in mice, H&E-stained lungs were imaged with morphometric software to quantify the surface area composed of tumor as opposed to normal tissue compared with the control group. There were 4 deaths out of 6 mice in the control group versus 2 deaths out of 6 mice in the BKA-073 treatment group (p<0.01), calculated up to 48 days before euthanization (FIG. 5).

In series [3] the test system is A549 lung cancer xenografts. In words: A549 lung cancer xenografts. The format is in vivo. The method, then:
Nu/Nu mice bearing A549 lung cancer xenografts were treated with increasing doses of BKA-073 (5 to 15 mg/kg/d) i.p. for 28 days. Tumor volume was measured once every 2 days. After treatment, mice were sacrificed, and tumors were removed and analyzed.
To test the potency of BKA-073 in vivo, mice carrying lung cancer xenografts derived from A549 cells were treated i.p. with increasing doses (0, 5, 10, 15 mg/kg/d) of BKA-073 for 28 days. […] To assess whether BKA-073 induced suppression of tumor growth occurs through activation of Bak and apoptosis in vivo, representative samples from harvested tumor tissues were analyzed by cross-linking with BMH for Bak oligomerization or by immunohistochemistry (IHC) for active caspase 3. […] Doses between 5 mg/kg and 15 mg/kg provide an optimal therapeutic index for BKA-073 for in vivo experimentation involving lung cancer xenografts.

As for `COc1ccc2nc3ccccc3c(NCCNCC(C)O)c2c1` (stereo not shown) [BKA-073, 1-((2-((2-methoxyacridin-9-yl)amino)ethyl)amino)propan-2-ol], in series [1], the apoptotic cell death result is recorded as “about 20%”. For the same molecule, the “deaths up to 48 days” value in series [2] is given as 2 deaths out of 6 mice. In addition, the tolerability result in series [3] (5 to 15 mg/kg/d) is on record as “well tolerated without significant toxicity”. Moreover, the “weight loss and organ toxicities” value in series [3] (dose range between 5 and 15 mg/kg/day) is given as “without weight loss or significant organ toxicities”.

For the origin of these results see patent US20240342157A1, “BAK ACTIVATORS, PHARMACEUTICAL COMPOSITIONS, AND USES IN TREATING CANCER” (Emory University, priority 2021, published 2024).
